Results from the supplement of paper PMC8612539.

System: Escherichia coli
Experiment: minimum inhibitory concentration (MIC)
Procedure: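 Broth microdilution MIC (Sensititre BOPO7F bovine plate, CLSI methods) of 19 antimicrobials against field isolates of P. multocida, M. haemolytica, H. somni (deep nasopharyngeal swabs) and E. coli, Enterococcus spp. (rectal swabs) from weaned dairy heifers. Incubation 16-24 h at 35 C. MIC is the lowest concentration preventing visible growth. Values with <= or > lie at the tested range limits. Trimethoprim-sulfamethoxazole is given as the trimethoprim component of a 1:19 mixture.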

Measured: minimum inhibitory concentration

CC[C@H]1OC(=O)C[C@@H](O)[C@H](C)[C@@H](O[C@@H]2O[C@H](C)[C@@H](O[C@H]3C[C@@](C)(O)[C@@H](O)[C@H](C)O3)[C@H](N(C)C)[C@H]2O)[C@@H](CC=O)C[C@@H](C)C(=O)/C=C/C(C)=C/[C@@H]1CO[C@@H]1O[C@H](C)[C@@H](O)[C@@H](OC)[C@H]1OC [Tylosin]
> 32 µg/mL: isolate (source animal id): 8 | isolate (source animal id): 9 | isolate (source animal id): 10 | isolate (source animal id): 11 | isolate (source animal id): 12 | isolate (source animal id): 13 | isolate (source animal id): 14 | isolate (source animal id): 15 | isolate (source animal id): 16 | isolate (source animal id): 98 | isolate (source animal id): 99 | isolate (source animal id): 100 | isolate (source animal id): 101 | isolate (source animal id): 102 | isolate (source animal id): 103 | isolate (source animal id): 104 | isolate (source animal id): 105 | isolate (source animal id): 106 | isolate (source animal id): 107 | isolate (source animal id): 108 | isolate (source animal id): 109 | isolate (source animal id): 110 | isolate (source animal id): 111 | isolate (source animal id): 112 | isolate (source animal id): 113 | isolate (source animal id): 114 | isolate (source animal id): 115 | isolate (source animal id): 116 | isolate (source animal id): 117 | isolate (source animal id): 118 | isolate (source animal id): 119 | isolate (source animal id): 120 | isolate (source animal id): 121 | isolate (source animal id): 122 | isolate (source animal id): 123 | isolate (source animal id): 124 | isolate (source animal id): 125 | isolate (source animal id): 126 | isolate (source animal id): 127 | isolate (source animal id): 128 | isolate (source animal id): 129 | isolate (source animal id): 130 | isolate (source animal id): 131 | isolate (source animal id): 132 | isolate (source animal id): 133 | isolate (source animal id): 134 | isolate (source animal id): 135 | isolate (source animal id): 136 | isolate (source animal id): 137 | isolate (source animal id): 138 | isolate (source animal id): 139 | isolate (source animal id): 140 | isolate (source animal id): 141 | isolate (source animal id): 142 | isolate (source animal id): 143 | isolate (source animal id): 144 | isolate (source animal id): 145 | isolate (source animal id): 146 | isolate (source animal id): 147 | isolate (source animal id): 148 | isolate (source animal id): 149 | isolate (source animal id): 150 | isolate (source animal id): 151 | isolate (source animal id): 152 | isolate (source animal id): 153 | isolate (source animal id): 154 | isolate (source animal id): 155 | isolate (source animal id): 156 | isolate (source animal id): 157 | isolate (source animal id): 158 | isolate (source animal id): 159 | isolate (source animal id): 160 | isolate (source animal id): 161 | isolate (source animal id): 162 | isolate (source animal id): 163 | isolate (source animal id): 164 | isolate (source animal id): 165 | isolate (source animal id): 166 | isolate (source animal id): 167 | isolate (source animal id): 168 | isolate (source animal id): 169 | isolate (source animal id): 170 | isolate (source animal id): 171 | isolate (source animal id): 172 | isolate (source animal id): 173 | isolate (source animal id): 174 | isolate (source animal id): 175 | isolate (source animal id): 176 | isolate (source animal id): 177 | isolate (source animal id): 178 | isolate (source animal id): 179 | isolate (source animal id): 180 | isolate (source animal id): 181 | isolate (source animal id): 182 | isolate (source animal id): 183 | isolate (source animal id): 184 | isolate (source animal id): 185 | isolate (source animal id): 186 | isolate (source animal id): 187 | isolate (source animal id): 188
